# Reference: ChEMBL document CHEMBL1142066, “In vitro effects of antimicrobial agents on planktonic and biofilm forms of Staphylococcus lugdunensis clinical isolates” (2007)
# Calls of active or inactive are those of the source. The rule behind the calls is not given here.
# How the values were obtained:
# [1] = system: Staphylococcus lugdunensis; assay: Effect on biofilm formation of Staphylococcus lugdunensis assessed as percent non-biofilm forming isolates; type: functional; design: concentration or dose not given beside the values
# [2] = system: Staphylococcus lugdunensis; assay: Antimicrobial susceptibility of Staphylococcus lugdunensis isolates by broth microdilution method; type: functional; conditions: for MIC50 / MIC90: Staphylococcus lugdunensis
# [3] = system: Staphylococcus lugdunensis; assay: Antimicrobial susceptibility of Staphylococcus lugdunensis IDRL856 biofilms after 24 hrs assessed as bacterial regrowth; type: functional
# [4] = system: Staphylococcus lugdunensis; assay: Antimicrobial susceptibility of Staphylococcus lugdunensis IDRL2394 biofilms after 24 hrs assessed as bacterial regrowth; type: functional
# [5] = system: Staphylococcus lugdunensis; assay: Antimicrobial susceptibility of Staphylococcus lugdunensis IDRL2414 biofilms after 24 hrs assessed as bacterial regrowth; type: functional
# [6] = system: Staphylococcus lugdunensis; assay: Antimicrobial susceptibility of Staphylococcus lugdunensis IDRL2492 biofilms after 24 hrs assessed as bacterial regrowth; type: functional
# [7] = system: Staphylococcus lugdunensis; assay: Antimicrobial susceptibility of Staphylococcus lugdunensis IDRL2526 biofilms after 24 hrs assessed as bacterial regrowth; type: functional
# [8] = system: Staphylococcus lugdunensis; assay: Antimicrobial susceptibility of Staphylococcus lugdunensis IDRL2554 biofilms after 24 hrs assessed as bacterial regrowth; type: functional
# [9] = system: Staphylococcus lugdunensis; assay: Antimicrobial susceptibility of Staphylococcus lugdunensis IDRL2588 biofilms after 24 hrs assessed as bacterial regrowth; type: functional
# [10] = system: Staphylococcus lugdunensis; assay: Antimicrobial susceptibility of Staphylococcus lugdunensis IDRL2622 biofilms after 24 hrs assessed as bacterial regrowth; type: functional
# [11] = system: Staphylococcus lugdunensis; assay: Antimicrobial susceptibility of Staphylococcus lugdunensis IDRL2639 biofilms after 24 hrs assessed as bacterial regrowth; type: functional
# [12] = system: Staphylococcus lugdunensis; assay: Antimicrobial susceptibility of Staphylococcus lugdunensis IDRL2640 biofilms after 24 hrs assessed as bacterial regrowth; type: functional
# [13] = system: Staphylococcus lugdunensis; assay: Antimicrobial susceptibility of Staphylococcus lugdunensis IDRL2664 biofilms after 24 hrs assessed as bacterial regrowth; type: functional
# [14] = system: Staphylococcus lugdunensis; assay: Antimicrobial susceptibility of Staphylococcus lugdunensis IDRL5204 biofilms after 24 hrs assessed as bacterial regrowth; type: functional
# [15] = system: Staphylococcus lugdunensis; assay: Antimicrobial susceptibility of Staphylococcus lugdunensis IDRL5254 biofilms after 24 hrs assessed as bacterial regrowth; type: functional
# [16] = system: Staphylococcus lugdunensis; assay: Antimicrobial susceptibility of Staphylococcus lugdunensis IDRL5256 biofilms after 24 hrs assessed as bacterial regrowth; type: functional
# [17] = system: Staphylococcus lugdunensis; assay: Antimicrobial susceptibility of Staphylococcus lugdunensis IDRL5258 biofilms after 24 hrs assessed as bacterial regrowth; type: functional
# [18] = system: Staphylococcus lugdunensis; assay: Increase in biofilm formation of Staphylococcus lugdunensis assessed as percent biofilm forming isolates; type: functional
# [19] = system: Staphylococcus lugdunensis; assay: Decrease in biofilm formation of Staphylococcus lugdunensis assessed as percent biofilm forming isolates; type: functional; design: concentration or dose not given beside the values
# Staphylococcus aureus [20] = assay: Increase in biofilm formation of Staphylococcus aureus SA113 at 0.25 times MIC; type: functional, organism-based
# [21] = system: Staphylococcus epidermidis; assay: Increase in biofilm formation of Staphylococcus epidermidis RP62A at 0.25 times MIC; type: functional, organism-based
# Staphylococcus aureus [22] = assay: Decrease in biofilm formation of Staphylococcus aureus SA113; type: functional, organism-based
# [23] = system: Staphylococcus epidermidis; assay: Decrease in biofilm formation of Staphylococcus epidermidis RP62A; type: functional, organism-based
# [24] = system: Staphylococcus lugdunensis; assay: Antimicrobial susceptibility of Staphylococcus lugdunensis IDRL5204 isolate from prosthetic joint infection patient by broth microdilution method; type: functional
# [25] = system: Staphylococcus lugdunensis; assay: Stimulation of Staphylococcus lugdunensis IDRL5256 biofilm formation; type: functional, organism-based
# [26] = system: Staphylococcus lugdunensis; assay: Antimicrobial susceptibility of Staphylococcus lugdunensis IDRL2394 isolate from prosthetic joint infection patient by broth microdilution method; type: functional
# [27] = system: Staphylococcus lugdunensis; assay: Antimicrobial susceptibility of Staphylococcus lugdunensis IDRL5254 isolate from intravascular catheter infection patient by broth microdilution method; type: functional
# [28] = system: Staphylococcus lugdunensis; assay: Antimicrobial susceptibility of Staphylococcus lugdunensis IDRL5256 isolate from prosthetic joint infection patient by broth microdilution method; type: functional
# [29] = system: Staphylococcus lugdunensis; assay: Ratio of MBC to MIC for Staphylococcus lugdunensis IDRL5256 isolate from prosthetic joint infection patient by broth microdilution method; type: functional
MIC50 [2],MIC90 [2],Compound,Activity [1],MBC50 [2],MBC90 [2],BBC [3],BBC [4],BBC [5],BBC [6],BBC [7],BBC [9],BBC [10],BBC [11],BBC [12],BBC [14],BBC [15],BBC [16],BBC [17],Activity [18],Activity [19],other results
0.125 µg/mL,0.25 µg/mL,COc1c(N2C[C@@H]3CCCN[C@@H]3C2)c(F)cc2c(=O)c(C(=O)O)cn(C3CC3)c12 [MOXIFLOXACIN],33%,0.125 µg/mL,0.25 µg/mL,0.25 µg/mL,2 µg/mL,0.5 µg/mL,0.25 µg/mL,0.5 µg/mL,0.5 µg/mL,2 µg/mL,0.25 µg/mL,2 µg/mL,0.5 µg/mL,0.5 µg/mL,1 µg/mL,<=0.125 ug ml-1,27%,40%,BBC [8]: <=0.125 ug ml-1; BBC [13]: <=0.125 ug ml-1
0.5 µg/mL,0.5 µg/mL,CCOc1ccc2ccccc2c1C(=O)N[C@@H]1C(=O)N2[C@@H]1SC(C)(C)[C@@H]2C(=O)O [NAFCILLIN],7%,0.5 µg/mL,2 µg/mL,16 µg/mL,>128 µg/mL,>128 µg/mL,8 µg/mL,4 µg/mL,8 µg/mL,8 µg/mL,1 µg/mL,>128 µg/mL,0.5 µg/mL,>128 µg/mL,>128 µg/mL,0.5 µg/mL,93%,0%,Activity (Staphylococcus aureus [22]): Active; Activity [23]: Active; BBC [8]: 2 µg/mL; BBC [13]: 2 µg/mL
≤ 0.03 µg/mL,≤ 0.03 µg/mL,CO[C@H]1/C=C/O[C@@]2(C)Oc3c(C)c(O)c4c(O)c(c(/C=N/N5CCN(C)CC5)c(O)c4c3C2=O)NC(=O)/C(C)=C\C=C\[C@H](C)[C@H](O)[C@@H](C)[C@@H](O)[C@@H](C)[C@H](OC(C)=O)[C@@H]1C [RIFAMPIN],93%,8 µg/mL,>32 µg/mL,8 µg/mL,0.25 µg/mL,0.25 µg/mL,64 µg/mL,32 µg/mL,64 µg/mL,64 µg/mL,32 µg/mL,64 µg/mL,32 µg/mL,64 µg/mL,32 µg/mL,8 µg/mL,7%,0%,–
0.25 µg/mL,1 µg/mL,CN(C)[C@@H]1C(O)=C(C(N)=O)C(=O)[C@@]2(O)C(O)=C3C(=O)c4c(O)cccc4[C@@](C)(O)[C@H]3C[C@@H]12 [TETRACYCLINE],0%,>32 µg/mL,>32 µg/mL,128 µg/mL,128 µg/mL,128 µg/mL,128 µg/mL,128 µg/mL,128 µg/mL,128 µg/mL,16 µg/mL,128 µg/mL,1 µg/mL,128 µg/mL,128 µg/mL,64 µg/mL,7%,93%,Activity [25]: Active; BBC [8]: 128 µg/mL; BBC [13]: 128 µg/mL

# The next lines start with the molecule.
Compound,MIC50 [2],MIC90 [2],Activity [1],MBC50 [2],MBC90 [2],BBC [3],BBC [4],BBC [5],BBC [6],BBC [7],BBC [9],BBC [10],BBC [11],BBC [12],BBC [14],BBC [15],BBC [16],BBC [17],Activity [18],Activity [19],other results
CCCCCCCCCC(=O)N[C@@H](Cc1c[nH]c2ccccc12)C(=O)N[C@H](CC(N)=O)C(=O)N[C@@H](CC(=O)O)C(=O)N[C@@H]1C(=O)NCC(=O)N[C@@H](CCCN)C(=O)N[C@@H](CC(=O)O)C(=O)N[C@H](C)C(=O)N[C@@H](CC(=O)O)C(=O)NCC(=O)N[C@H](CO)C(=O)N[C@@H]([C@H](C)CC(=O)O)C(=O)N[C@@H](CC(=O)c2ccccc2N)C(=O)O[C@@H]1C,0.125 µg/mL,0.25 µg/mL,87%,0.5 µg/mL,1 µg/mL,16 µg/mL,64 µg/mL,>128 µg/mL,8 µg/mL,8 µg/mL,128 µg/mL,1 µg/mL,32 µg/mL,>128 µg/mL,8 µg/mL,128 µg/mL,64 µg/mL,16 µg/mL,13%,0%,BBC [8]: 4 µg/mL; BBC [13]: 32 µg/mL
Cc1nnc(SCC2=C(C(=O)O)N3C(=O)[C@@H](NC(=O)Cn4cnnn4)[C@H]3SC2)s1 [CEFAZOLIN],0.25 µg/mL,0.5 µg/mL,80%,0.5 µg/mL,1 µg/mL,>128 µg/mL,>128 µg/mL,>128 µg/mL,>128 µg/mL,>128 µg/mL,>128 µg/mL,2 µg/mL,4 µg/mL,>128 µg/mL,1 µg/mL,>128 µg/mL,>128 µg/mL,>128 µg/mL,13%,7%,BBC [8]: >128 µg/mL; BBC [13]: 8 µg/mL
CC(=O)NC[C@H]1CN(c2ccc(N3CCOCC3)c(F)c2)C(=O)O1 [LINEZOLID],1 µg/mL,1 µg/mL,20%,>128 µg/mL,>128 µg/mL,>128 µg/mL,>128 µg/mL,>128 µg/mL,>128 µg/mL,>128 µg/mL,>128 µg/mL,>128 µg/mL,>128 µg/mL,>128 µg/mL,4 µg/mL,>128 µg/mL,>128 µg/mL,>128 µg/mL,0%,80%,Activity (Staphylococcus aureus [20]): Active; Activity [21]: Active; BBC [8]: >128 µg/mL; BBC [13]: >128 µg/mL
Cc1cc(NS(=O)(=O)c2ccc(N)cc2)no1 [SULFAMETHOXAZOLE],–,–,–,–,–,–,–,–,–,–,–,–,–,–,–,–,–,–,–,–,MIC [24]: 304 µg/mL
COc1cc(Cc2cnc(N)nc2N)cc(OC)c1OC [TRIMETHOPRIM],–,–,–,–,–,–,–,–,–,–,–,–,–,–,–,–,–,–,–,–,MIC [24]: 16 µg/mL
CN[C@H](CC(C)C)C(=O)N[C@H]1C(=O)N[C@@H](CC(N)=O)C(=O)N[C@H]2C(=O)N[C@H]3C(=O)N[C@H](C(=O)N[C@H](C(=O)O)c4cc(O)cc(O)c4-c4cc3ccc4O)[C@H](O)c3ccc(c(Cl)c3)Oc3cc2cc(c3O[C@@H]2O[C@H](CO)[C@@H](O)[C@H](O)[C@H]2O[C@H]2C[C@](C)(N)[C@H](O)[C@H](C)O2)Oc2ccc(cc2Cl)[C@H]1O [VANCOMYCIN],1 µg/mL,2 µg/mL,47%,>128 µg/mL,>128 µg/mL,>128 µg/mL,>128 µg/mL,>128 µg/mL,>128 µg/mL,>128 µg/mL,>128 µg/mL,>128 µg/mL,>128 µg/mL,>128 µg/mL,4 µg/mL,>128 µg/mL,>128 µg/mL,>128 µg/mL,27%,27%,MBC [26]: 64 µg/mL; MBC [27]: 64 µg/mL; MBC [28]: 4 µg/mL; Ratio [29]: >=64; BBC [8]: 4 µg/mL; BBC [13]: 8 µg/mL
